Reference: paper PMC7503767, “Alkoxyamines Designed as Potential Drugs against Plasmodium and Schistosoma Parasites” (Molecules, 2020)
Marks after values point to notes of the source that are not given here.

Columns and labels:
[1] = system: Adult S. mansoni; assay: In vitro antischistosomal activity on adult worms; type: cell-based, Schistosoma mansoni; conditions: for Mean (±SD) survival time – Adult S. mansoni / Time for the death of 100% worms: 100 µg/mL; for Mean (±SD) survival time – Adult S. mansoni: observation up to 8 h (Table S1)
Text: The NMRI strain of Schistosoma mansoni was used for the experimentations. The parasite was maintained on an albino variety of Biomphalaria glabrata from Brazil (intermediate host) and in Golden Hamsters, Mesocricetus auratus (Janvier Labs, Le Genest-Saint-Isle, France). Detailed methods, for mollusk and hamster infections and for parasite recovery, were previously described.
Adult worms were recovered between 42 and 47 days after infection by hepatic perfusion technique. Twenty to fifty adult worms were disposed in 12-well Falcon® plate containing 2 mL of RPMI 1640 (supplemented with L-glutamine and Hepes 25 mM) and stored in an incubator chamber (37 °C; 5% CO2). Drug preparation started with dissolution of the drug in DMSO to give a 100 mg/mL stock solution. The dilution was complemented with Tween 80 and RPMI in order to obtain the following final ratio dilution: RPMI 1640/Tween 80/DMSO, 1000/0.95/3.8, v/v/v. The drug solution was added to Falcon plates that contained adult worms. The S. mansoni cultures were then incubated with each drug at a final concentration of 100 µg/mL. Positive control was carried out with a solution of praziquantel (Merck KGaA, Darmstadt, Germany) at a concentration of 100 µg/mL. Negative control was carried out with the same RPMI 1640/Tween 80/DMSO solution, but without any drug. Each test was performed in duplicate. Every hour, moving worms were counted in order to define the percentage of survivors. Parasites showing no body contractions during a 30 s observation were considered as dead. Observations were extended to 8 h. Mean survival times (± standard deviation) were calculated for each drug using Kaplan–Meier survival analyses.

[2] = system: P. falciparum chloroquine-resistant strain FcB1-Columbia; assay: Antiplasmodial screen at 10 µM and chemosensitivity assay (SYBR Green I), FcB1-Columbia; type: cell-based, Plasmodium falciparum; conditions: FcB1-Columbia strain; read-out: IC50 on P. falciparum
[3] = Homolysis of the NO–C bond measured by EPR
Description: Homolysis rate constants kd’ were measured by EPR and estimated using Equation (1) as reported many times in the literature. Further, Ea and kd were estimated using Equation (2). (1) ln([nitroxide]∞−[nitroxide]t/[nitroxide]∞)=−kd·t (2) Ea=−RT ln([…] kd′ )

[4] = adult S. mansoni, observation up to 8 h

Compound: 4-hydroxy-tetramethylpiperidine-N-oxyl [compound 8]
- Mean (±SD) survival time – Adult S. mansoni [1]: > 8 h
- Time for the death of 100% worms [1, 4]: > 8 h

Compound: CCOP(=O)(OCC)[C@@H](N(O[C@H](C)n1cc[n+](C)c1)C(C)(C)C)C(C)(C)C.Cc1ccc(S(=O)(=O)[O-])cc1 (relative stereo) [(RR/SS)-1n]
- Mean (±SD) survival time – Adult S. mansoni [1]: > 8 h
- Time for the death of 100% worms [1, 4]: > 8 h

Compound: CCOP(=O)(OCC)C(N(OC(C)c1cc(-c2ccccn2)nc(-c2ccccn2)c1)C(C)(C)C)C(C)(C)C (centres unmarked) [1F]
- IC50 [2]: > 10 µM

Compound: CCOP(=O)(OCC)C(N(OC(C)c1ccncc1)C(C)(C)CO)C(C)(C)C (centres unmarked) [2a]
- Mean (±SD) survival time – Adult S. mansoni [1]: > 8 h
- Time for the death of 100% worms [1, 4]: > 8 h

Compound: CCOP(=O)(OCC)C(N(OC(C)c1cccnc1)C(C)(C)CO)C(C)(C)C (centres unmarked) [2b]
- Mean (±SD) survival time – Adult S. mansoni [1]: > 8 h
- Time for the death of 100% worms [1, 4]: > 8 h

Compound: CC(ON1C(C)(C)CC(O)CC1(C)C)c1ccncc1 (centres unmarked) [8a]
- Mean (±SD) survival time – Adult S. mansoni [1]: > 8 h
- Time for the death of 100% worms [1, 4]: > 8 h

Compound: CC(ON1C(C)(C)CC(O)CC1(C)C)c1cccnc1 (centres unmarked) [8b]
- Mean (±SD) survival time – Adult S. mansoni [1]: > 8 h
- Time for the death of 100% worms [1, 4]: > 8 h

Compound: CC(ON1C(C)(C)CC(O)CC1(C)C)c1ccccc1 (centres unmarked) [8z]
- Mean (±SD) survival time – Adult S. mansoni [1]: 1.9 ± 0.1 h
- Time for the death of 100% worms [1, 4]: 2 h

Compound: CC(ON1C(C)(C)CCCC1(C)C)c1cc(-c2ccccn2)nc(-c2ccccn2)c1 (centres unmarked) [9F]
- activation energy Ea ([3]; MeOH/water 1:1 pH = 7.4): 131.9 ^k kJ/mol
- re-estimated homolysis rate constant kd at 120 °C ([3]; MeOH/water 1:1 pH = 7.4): 0.7 ^k 10^−3 s^−1
- half-lifetime t1/2 at 37 °C ([3]; MeOH/water 1:1 pH = 7.4 (aqueous medium)): 385 ^k day
- homolysis rate constant kd′ ([3]; MeOH/water 1:1 pH = 7.4, 90 °C): 0.25 ^k 10^−4s^−1
- activation energy Ea ([3]; t-BuPh): 131.0 ^k kJ/mol
- half-lifetime t1/2 at 37 °C ([3]; t-BuPh): 385 ^k day
- re-estimated homolysis rate constant kd at 120 °C ([3]; t-BuPh): 0.95 ^k 10^−3 s^−1
- homolysis rate constant kd′ ([3]; t-BuPh, 111 °C): 3.7 ^k 10^−4s^−1

Compound: CC(ON1C(C)(C)CCCC1(C)C)c1cccnc1 (centres unmarked) [9b]
- Time for the death of 100% worms [1, 4]: 3 h

Compound: CC(ON1C(C)(C)CCCC1(C)C)c1ccccc1 (centres unmarked) [9z]
- Mean (±SD) survival time – Adult S. mansoni [1]: > 8 h
- Time for the death of 100% worms [1, 4]: > 8 h

Compound: CC(ON(C(C)(C)C)C(C)(C)C)c1ccncc1 (centres unmarked) [14a]
- Mean (±SD) survival time – Adult S. mansoni [1]: 2.5 ± 0.10 h
- Time for the death of 100% worms [1, 4]: 3 h

Compound: CCOP(=O)(OCC)C(N(OC(C)c1cccnc1)C(C)(C)C)C(C)(C)C (centres unmarked) [(RR/SS)-1b]
- IC50 [2]: 22.5 µM

Compound: CCOP(=O)(OCC)C(N(OC(C)c1ccccn1)C(C)(C)C)C(C)(C)C (centres unmarked) [(RR/SS)-1c]
- IC50 [2]: > 10 µM

Compound: CCOP(=O)(OCC)C(N(OC(C)c1cn(C)cn1)C(C)(C)C)C(C)(C)C (centres unmarked) [(RR/SS)-1q]
- Mean (±SD) survival time – Adult S. mansoni [1]: 3.3 ± 0.9 h
- Time for the death of 100% worms [1, 4]: 6 h

Compound: CCOP(=O)(OCC)C(N(OC(C)c1cn(C)c[n+]1C)C(C)(C)C)C(C)(C)C.[I-] (centres unmarked) [(RR/SS)-1r]
- Time for the death of 100% worms [1, 4]: 4 h

Compound: CCOP(=O)(OCC)C(N(OC(C)c1ccc(C)cc1)C(C)(C)C)C(C)(C)C (centres unmarked) [(RR/SS)-1s]
- Mean (±SD) survival time – Adult S. mansoni [1]: > 8 h
- Time for the death of 100% worms [1, 4]: > 8 h

Compound: CCOP(=O)(OCC)C(N(OC(C)c1cc(-c2ccccn2)nc(-c2ccccn2)c1)C(C)(C)CO[Si](C)(C)C(C)(C)C)C(C)(C)C (centres unmarked) [(RR/SS)-6F, Diethyl(1-((1-([2,2′:6′,2′′-terpyridin]-4′-yl)ethoxy)(1-((tert-butyldimethylsilyl)oxy)-2-methylpropan-2-yl)amino)-2,2-dimethylpropyl)phosphonate]
- activation energy Ea ([3]; t-BuPh): 123.8 kJ/mol
- half-lifetime t1/2 at 37 °C ([3]; t-BuPh): 24 days
- re-estimated homolysis rate constant kd at 120 °C ([3]; t-BuPh): 8.5 10^−3 s^−1
- homolysis rate constant kd′ ([3]; t-BuPh, 81 °C): 1.4 10^−4s^−1

Compound: CCOP(=O)(OCC)C(N(OC(C)c1cc(-c2ccccc2)cc(-c2ccccc2)c1)C(C)(C)CO[Si](C)(C)C(C)(C)C)C(C)(C)C (centres unmarked) [(RR/SS)-6G, Diethyl(1-((1-([1,1′:3′,1′′-terphenyl]-5′-yl)ethoxy)(1-((tert-butyldimethylsilyl)oxy)-2-methylpropan-2-yl)amino)-2,2-dimethylpropyl)phosphonate]
- half-life ([3]; half-lifetime t1/2 at 37 °C, t-BuPh): 33.4 days
- activation energy Ea ([3]; t-BuPh): 125.5 kJ/mol
- re-estimated homolysis rate constant kd at 120 °C ([3]; t-BuPh): 5.10 10^−3 s^−1
- homolysis rate constant kd′ ([3]; t-BuPh, 92 °C): 2.7 10^−4s^−1

Compound: CCOP(=O)(OCC)C(N(OC(C)n1cc[n+](C)c1)C(C)(C)C)C(C)(C)C.Cc1ccc(S(=O)(=O)[O-])cc1 (centres unmarked) [(RS/SR)-1n]
- Mean (±SD) survival time – Adult S. mansoni [1]: > 8 h
- Time for the death of 100% worms [1, 4]: > 8 h

Compound: CCOP(=O)(OCC)C(N(OC(C)c1cn(C)cn1)C(C)(C)C)C(C)(C)C (centres unmarked) [(RS/SR)-1q]
- Mean (±SD) survival time – Adult S. mansoni [1]: 1.3 ± 0.2 h
- Time for the death of 100% worms [1, 4]: 2 h

Compound: CCOP(=O)(OCC)C(N(OC(C)c1cn(C)c[n+]1C)C(C)(C)C)C(C)(C)C.[I-] (centres unmarked) [(RS/SR)-1r]
- Time for the death of 100% worms [1, 4]: 6 h

Compound: CCOP(=O)(OCC)C(N(OC(C)c1ccc(C)cc1)C(C)(C)C)C(C)(C)C (centres unmarked) [(RS/SR)-1s]
- Mean (±SD) survival time – Adult S. mansoni [1]: 3.3 ± 0.1 h
- Time for the death of 100% worms [1, 4]: 4 h

Compound: CCOP(=O)(OCC)C(N(OC(C)c1cc(-c2ccccc2)cc(-c2ccccc2)c1)C(C)(C)CO)C(C)(C)C (centres unmarked) [(RS/SR)-2G, Diethyl(1-((1-([1,1′:3′,1′′-terphenyl]-5′-yl)ethoxy)(1-hydroxy-2-methylpropan-2-yl)amino)-2,2-dimethylpropyl)phosphonate]
- activation energy Ea ([3]; MeOH/water 2:1 pH = 7.0): 122.1 kJ/mol
- half-lifetime t1/2 at 37 °C ([3]; MeOH/water 2:1 pH = 7.0): 12.7 days
- re-estimated homolysis rate constant kd at 120 °C ([3]; MeOH/water 2:1 pH = 7.0): 14.4 10^−3 s^−1
- homolysis rate constant kd′ ([3]; MeOH/water 2:1 pH = 7.0, 81 °C): 2.3 10^−4s^−1
- activation energy Ea ([3]; t-BuPh): 120.8 kJ/mol
- half-lifetime t1/2 at 37 °C ([3]; t-BuPh): 7.5 days
- re-estimated homolysis rate constant kd at 120 °C ([3]; t-BuPh): 21.6 10^−3 s^−1
- homolysis rate constant kd′ ([3]; t-BuPh, 81 °C): 3.7 10^−4s^−1
- Mean (±SD) survival time – Adult S. mansoni [1]: > 8 h
- Time for the death of 100% worms [1, 4]: > 8 h

Compound: CCOP(=O)(OCC)C(N(OC(C)c1ccccc1)C(C)(C)C(=O)O)C(C)(C)C (centres unmarked) [(RS/SR)-4z]
- Mean (±SD) survival time – Adult S. mansoni [1]: > 8 h
- Time for the death of 100% worms [1, 4]: > 8 h

Compound: CCOP(=O)(OCC)C(N(OC(C)c1ccccc1)C(C)(C)C(=O)OC)C(C)(C)C (centres unmarked) [(RS/SR)-5z]
- Mean (±SD) survival time – Adult S. mansoni [1]: > 8 h
- Time for the death of 100% worms [1, 4]: > 8 h

Compound: CCOP(=O)(OCC)C(N(OC(C)c1cc(-c2ccccn2)nc(-c2ccccn2)c1)C(C)(C)CO[Si](C)(C)C(C)(C)C)C(C)(C)C (centres unmarked) [(RS/SR)-6F, Diethyl(1-((1-([2,2′:6′,2′′-terpyridin]-4′-yl)ethoxy)(1-((tert-butyldimethylsilyl)oxy)-2-methylpropan-2-yl)amino)-2,2-dimethylpropyl)phosphonate]
- activation energy Ea ([3]; t-BuPh): 121.7 kJ/mol
- half-lifetime t1/2 at 37 °C ([3]; t-BuPh): 10 days
- re-estimated homolysis rate constant kd at 120 °C ([3]; t-BuPh): 16.3 10^−3 s^−1
- homolysis rate constant kd′ ([3]; t-BuPh, 81 °C): 2.7 10^−4s^−1

Compound: CCOP(=O)(OCC)C(N(OC(C)c1cc(-c2ccccc2)cc(-c2ccccc2)c1)C(C)(C)CO[Si](C)(C)C(C)(C)C)C(C)(C)C (centres unmarked) [(RS/SR)-6G, Diethyl(1-((1-([1,1′:3′,1′′-terphenyl]-5′-yl)ethoxy)(1-((tert-butyldimethylsilyl)oxy)-2-methylpropan-2-yl)amino)-2,2-dimethylpropyl)phosphonate]
- activation energy Ea ([3]; t-BuPh): 124.7 kJ/mol
- re-estimated homolysis rate constant kd at 120 °C ([3]; t-BuPh): 6.50 10^−3 s^−1
- homolysis rate constant kd′ ([3]; t-BuPh, 92 °C): 3.5 10^−4s^−1

Compound: O=C(C1CCCCC1)N1CC(=O)N2CCc3ccccc3C2C1 (centres unmarked) [Praziquantel, praziquantel, reference compound]
- Mean (±SD) survival time – Adult S. mansoni [1]: 1.0 ± 0.05 h
- Time for the death of 100% worms [1, 4]: 1 h
- S. mansoni Mean Survival Time ([1]; adult S. mansoni, single dose 100 µg/mL, observation up to 8 h): 1.0 ± 0.05 h
